Reference: patent US4336268A, “Cyclohexene derivative analgesics” (Hoffmann-La Roche Inc., priority 1980, dated 1982)
Structures can show the parent of a compound that is named as a salt.

What was measured:
Assay type in all cases: in vivo
[1] = "writhing test" (analgesic activity); conditions: p.o.; for ED50: Mus musculus, po
Excerpt: (§1) In the Table which follows are compiled the ED50 values obtained in this test with representative compounds of formula I. The Table also contains data relating to the acute toxicity of the compounds, that is, LD50 in mg/kg in the case of single oral administration to mice.

[2] = acute toxicity, single oral administration to mice; conditions: mouse, in vivo
Excerpt: as §1

mice = experiment: acute toxicity, single oral administration to mice
Excerpt: as §1

SMILES	ED50 ([1]; 0.5 h, after 30 min.)	ED50 ([1]; 1 h, after 60 min.)	LD50 [2]	ED50 in the "writhing test" ([1]; after 60 min., hydrochloride, 60 min)	LD50 (mice)
CN(C)CCC1(c2cccc(O)c2)C=CCCC1 (racemic) [rac. 1-(m-Hydroxyphenyl)-N,N-dimethyl-2-cyclohexene-1-ethylamine hydrochloride]	41 mg/kg	26 mg/kg	250 to 500 mg/kg	–	–
COc1cccc(C2(CCN(C)C)C=CCCC2)c1 (racemic) [rac. 1-(m-methoxyphenyl)-N,N-dimethyl-2-cyclohexene-1-ethylamine hydrochloride]	33 mg/kg	35 mg/kg	150 to 300 mg/kg	–	–
COc1cccc(C2(CCN(C)C)C=CCCC2)c1.Cl (single isomer, unassigned; (-)) [(-)-1-(m-Methoxyphenyl)-N,N-dimethyl-2-cyclohexene-1-ethylam] [(-)-1-(m-Methoxyphenyl)-N,N-dimethyl-2-cyclohexene-1-ethylamine hydrochloride]	–	–	–	19 mg/kg	250 to 500 mg/kg
COc1cccc(C2(CCN(C)C)C=CCCC2)c1.Cl (single isomer, unassigned; (+)) [(+)-1-(m-Methoxyphenyl)-N,N-dimethyl-2-cyclohexene-1-ethylamine hydrochloride]	–	24 mg/kg	250 to 500 mg/kg	–	–
